Measurements reported in PMC11001709, “Anti-toxoplasma activity and DNA-binding of copper(II) and zinc(II) coordination compounds with 5-nitroimidazole-based ligands” (Journal of Biological Inorganic Chemistry, 2023).

Assays:
[1] = Distribution coefficient LogD7.4, shake-flask 1-octanol/MOPS buffer; format: physicochemical; conditions: octanol/water (MOPS buffer 10^–2 M), 25 °C, 3 h
Procedure: Solutions between 100 and 10 µM of the free ligands (cenz and onz) and the coordination compounds 3–10 were prepared in a MOPS buffer pH 7.4 as the aqueous phase and in 1-octanol as the organic phase. The absorption at 320 nm and 310 nm was determined for the aqueous and organic phase respectively by electronic spectroscopy (UV–Vis). Through a linear regression (concentration vs. absorption) the molar extinction coefficient of each compound in both phases was determined (Table 3). The lipophilicity was calculated in the 1-octanol/water system from the shake flask method using Eq. 1 [39]:1 […] where, Co is the final concentration in the organic phase and Cw is the final concentration in the aqueous phase (MOPS buffer at 10^–2 M pH 7.4). Both phases were presaturated with 50 µM solutions of the free ligands or 500 µM of each coordination compound and their UV spectrum was recorded. Both phases were combined and kept stirring for 3 h at 25 °C and in the absence of light. Subsequently, the mixture was centrifuged at 400g and the concentration in both phases was determined by UV–Vis spectroscopy using the Beer-Lambert law. The assays were performed in triplicate.
The T gondii parasite is an apicomplex organism; it requires a host cell to live, so it is important that the drugs used against the parasite have easy access to the cell. The lipophilicity of a compound is an important physicochemical property to determine its ability to permeate the biological membrane through passive diffusion; which usually is measured from the distribution coefficient logD7.4 = log(Co/Cw), in n-octanol/water. The shake-flask method was used to determine the LogD7.4 values from the molar extinction coefficients of the coordination compounds and the ligands in the two solvents (Table 3).

ct-DNA = test: Circular dichroism of ct-DNA; format: binding, calf; conditions: [DNA]b = 50 µM, [complex]/[DNA] 0-2, 1 h 37 °C
Procedure: For the UV–Vis, fluorescence and circular dichroism assays the concentration of ct-DNA was determined on a Varian Cary 100 Scan spectrophotometer from the absorption at 260 nm and the corresponding molar absorptivity of 6600 M^−1 cm^−1 (nucleobase concentration). The stock solutions of the coordination compounds and the free ligands were prepared in cacodylate/NaCl buffer (1 mM cacodylic acid and 20 mM sodium chloride) at pH 7.25. The final samples contained a DMSO concentration of 0.2%.
Circular dichroism (CD) spectra were recorded using a JASCO-815 spectropolarimeter, equipped with xenon-arc lamp of 450 W. The sample compartment was air-purged with N2 before use. For the measurements, a quartz cuvette with an optical path of 5 mm was used. A solution of 25 µM (in base pairs) of ct-DNA in cacodylate/NaCl buffer was incubated for 1 h at 37 °C with increasing amounts of coordination compounds (0–50 µM). The CD spectra were recorded at room temperature.
The interaction of small molecules with DNA can modify these CD signals depending on the type of binding. Intercalative interactions increase the intensity of the signals, as the result of an increase of the stability of the B conformation, whereas groove binding or covalent interactions tend to decrease the intensity of these signals, which are moreover displaced. The CD spectra for both ligands and their copper(II) and zinc(II) complexes were obtained at constant concentration of ct-DNA, increasing the complex concentration up to two equivalents ([complex]/[DNA] ratios of 0, 0.2, 0.4, 1, 2) with respect to the nucleobases concentration ([DNA]b = 50 µM).

pBR322 plasmid DNA = test: Agarose gel electrophoresis, DNA cleavage; format: biochemical
Procedure: Electrophoresis assays were performed in 1.5% agarose gel and 1× TBE buffer using the DNA plasmid pBR322. The plasmid (15 µM base pairs) was incubated with 10 and 50 μM concentrations of the coordination compounds for 1 h at 37 °C in presence and absence of ascorbic acid (50 μM) as reducing agent and hydrogen peroxide (500 µM) as ROS generator in a final volume of 20 μL. The DNA-cleaving compound [Cu(phen)2(H2O)](NO3)2 was used as reference. The samples were loaded into the gel with 4 μL of a loading buffer (30% glycerol, 5 mM xylene cyanol), and electrophoresis was performed in 1× TBE at 100 V for 1 h in a Bio-Rad horizontal tank. Subsequently, the gel was stained with SYBR™ Safe overnight and images were acquired with a Gel Doc EZ Imager instrument (Bio-Rad).
Distinct forms of pBR322 plasmid DNA are commonly observed by gel electrophoresis due to the conformational changes that present distinct electrophoretic mobility: (1) supercoiled DNA (Form I) that migrates faster on the gel, (2) circular nicked (Form II), obtained from a one-strand scission, has a slower migration through the gel and (3) linear form (Form III) is generated when both strands are cleaved and migrates between forms I and II [54]. The interaction of the free ligands and their copper(II) and zinc(II) coordination compounds with pBR322 was investigated in presence of H2Asc (50 μM) as reducing agent and H2O2 (500 μM) as ROS generator. Solutions of 10 and 50 µM of the coordination compounds were incubated with the DNA at 37 °C for 1 h.

[2] = compound 10 (mM in the source), + H2Asc
[3] = compound 10 (mM in the source), + H2Asc + H2O2
[4] = compound 10 (mM in the source), + H2O2
[5] = compound 10 (mM in the source), no additive
[6] = compound 50 (mM in the source), + H2Asc
[7] = compound 50 (mM in the source), + H2Asc + H2O2
[8] = compound 50 (mM in the source), + H2O2
[9] = compound 50 (mM in the source), no additive

SMILES | LogD7.4 [1] | effect on CD spectrum of ct-DNA (bands at 275 and 245 nm) (ct-DNA) | %Damage (pBR322 plasmid DNA; [2]) [%] | %Supercoiled (pBR322 plasmid DNA; [2]) [%] | %Damage (pBR322 plasmid DNA; [3]) [%] | %Damage (pBR322 plasmid DNA; [4]) [%] | %Nicked (pBR322 plasmid DNA; [4]) [%] | %Supercoiled (pBR322 plasmid DNA; [4]) [%] | %Damage (pBR322 plasmid DNA; [5]) [%] | %Nicked (pBR322 plasmid DNA; [5]) [%] | %Supercoiled (pBR322 plasmid DNA; [5]) [%] | %Damage (pBR322 plasmid DNA; [6]) [%] | %Damage (pBR322 plasmid DNA; [7]) [%] | %Damage (pBR322 plasmid DNA; [8]) [%] | %Damage (pBR322 plasmid DNA; [9]) [%] | %Nicked (pBR322 plasmid DNA; [9]) [%] | %Supercoiled (pBR322 plasmid DNA; [9]) [%] | %Nicked (pBR322 plasmid DNA; [2]) [%] | %Nicked (pBR322 plasmid DNA; [3]) [%] | %Supercoiled (pBR322 plasmid DNA; [3]) [%] | also measured
Cc1ncc([N+](=O)[O-])n1CCCl.Cc1ncc([N+](=O)[O-])n1CCCl.[Br][Cu][Br] [[Cu(cenz)2Br2]] | 0.62 | decrease of the intensity of the positive and negative bands | 43.90 | 56.10 | 100.00 | 84.00 | 37.10 | 16.00 | 37.80 | 11.30 | 62.20 | 100.00 | 100.00 | 100.00 | 33.80 | 7.50 | 66.20 | – | – | – | –
Cc1ncc([N+](=O)[O-])n1CCCl.Cc1ncc([N+](=O)[O-])n1CCCl.[Cl][Cu][Cl] [[Cu(cenz)2Cl2]] | 0.69 | decrease of the intensity of the positive and negative bands | 33.20 | 66.80 | 100.00 | 83.50 | 84.30 | 16.50 | 12.00 | – | 88.00 | 100.00 | 100.00 | 100.00 | 31.50 | – | 68.50 | 16.60 | – | – | –
Cc1n(CC(O)CCl)c([N+](=O)[O-])c[n+]1[Cu-2]([Br])([Br])[n+]1cc([N+](=O)[O-])n(CC(O)CCl)c1C (centres unmarked) [[Cu(onz)2Br2]] | 0.56 | decrease of the intensity of the positive and negative bands | 44.70 | 55.30 | 100.00 | 100.00 | – | – | 7.80 | – | 92.20 | 100.00 | 100.00 | 100.00 | 6.70 | 23.00 | 93.30 | 35.60 | – | – | –
Cc1ncc([N+](=O)[O-])n1CC(O)CCl.Cc1ncc([N+](=O)[O-])n1CC(O)CCl.[Cl-].[Cl-].[Cu+2] (centres unmarked) [[Cu(onz)2Cl2]] | 0.61 | decrease of the intensity of the positive and negative bands | 58.10 | 41.90 | 80.60 | 16.40 | 6.10 | 83.60 | 36.40 | 6.40 | 63.60 | 100.00 | 100.00 | 100.00 | 33.80 | 9.70 | 66.20 | 33.00 | 46.50 | 19.40 | –
Cc1ncc([N+](=O)[O-])n1CCCl.Cc1ncc([N+](=O)[O-])n1CCCl.[Br][Zn][Br] [[Zn(cenz)2Br2]] | 0.82 | spectra changes are minor | 28.40 | 71.60 | 89.00 | 19.30 | 27.20 | 80.70 | 6.20 | 3.00 | 93.80 | 96.10 | 78.40 | 98.40 | 11.60 | 2.20 | 88.40 | 6.40 | 75.80 | 11.00 | %Nicked (pBR322 plasmid DNA; [6]): 39.50%; %Supercoiled (pBR322 plasmid DNA; [6]): 3.90%; %Nicked (pBR322 plasmid DNA; [7]): 10.40%; %Supercoiled (pBR322 plasmid DNA; [7]): 21.60%; %Nicked (pBR322 plasmid DNA; [8]): 63.30%; %Supercoiled (pBR322 plasmid DNA; [8]): 1.60%
Cc1ncc([N+](=O)[O-])n1CC(O)CCl.Cc1ncc([N+](=O)[O-])n1CC(O)CCl.[Cl][Zn][Cl] (centres unmarked) [[Zn(onz)2Cl2]] | 0.90 | spectra changes are minor | 91.2 | 8.80 | 67.90 | 10.80 | 5.90 | 89.20 | 14.6 | – | 85.40 | 100 | 100.00 | 78.30 | 32.9 | 3.90 | 67.10 | 65.70 | 44.00 | 32.10 | %Nicked (pBR322 plasmid DNA; [6]): 4.80%; %Nicked (pBR322 plasmid DNA; [8]): 47.60%; %Supercoiled (pBR322 plasmid DNA; [8]): 21.70%
